# Assay results taken from patent US6610270B1, “In vivo determination of metabolic function for use in therapy management” (Xanthus Life Sciences, Inc., priority 1998, dated 2003).
# What was measured:
# [1] = tested on: N-acetyl transferase (NAT); assay: NAT metaprobe 13C recovery in urinary glucosamine fraction; assay type: in vivo, Sprague-Dawley rats; conditions: 5 mg/kg by gastric intubation, 24 hour urine, bile acid glucosamine fraction
# Description: (§1) In the first experiment, six male Sprague-Dawley rats, weighing on average 300 grams, were studied while awake and unstressed after an overnight fast. […] Food and water were then given ad libitum. After receiving the metaprobes, the animals were kept in metabolic cages to facilitate collection of urine (Robinson, 1968).
# [2] = tested on: N-acetyl transferase (NAT); assay: NAT metaprobe 13C recovery in human urine; assay type: in vivo
# Procedure: The tracers were ingested each time with 100 ml of a 10% aqueous solution of high fructose corn syrup. Urine samples were collected at 12, 24 and 36 hours. […] The analysis of each urine sampling interval was carried out in triplicate and the variation among replicates fell within 15%. […] Also, since aspartyl-N-acetyl-glucosamine pyranoside is rapidly synthesized and subsequently turned over by lysozomes, its rate of appearance in plasma can be determined, along with the plasma rate of appearance of N-acetylglucosamine, at shorter intervals post dosing. Thus, the MRI2 index could be computed within reach of the two-hour preferred sampling time frame for the practicable implementation of diagnostic procedures with metaprobes.
# [3] = tested on: glutamine-fructose-6-phosphate aminotransferase (GFAT); conditions: rat, in vivo
# Description: as §1
# [4] = biological target: T1, Prolyl oligopeptidase (PO) (Homo sapiens, UniProt P48147); assay: prolyl oligopeptidase metaprobe hydrolysis in bronchoalveolar lavage fluid; assay type: biochemical; conditions: Human BAL
# T1 sequence (P48147 1-710): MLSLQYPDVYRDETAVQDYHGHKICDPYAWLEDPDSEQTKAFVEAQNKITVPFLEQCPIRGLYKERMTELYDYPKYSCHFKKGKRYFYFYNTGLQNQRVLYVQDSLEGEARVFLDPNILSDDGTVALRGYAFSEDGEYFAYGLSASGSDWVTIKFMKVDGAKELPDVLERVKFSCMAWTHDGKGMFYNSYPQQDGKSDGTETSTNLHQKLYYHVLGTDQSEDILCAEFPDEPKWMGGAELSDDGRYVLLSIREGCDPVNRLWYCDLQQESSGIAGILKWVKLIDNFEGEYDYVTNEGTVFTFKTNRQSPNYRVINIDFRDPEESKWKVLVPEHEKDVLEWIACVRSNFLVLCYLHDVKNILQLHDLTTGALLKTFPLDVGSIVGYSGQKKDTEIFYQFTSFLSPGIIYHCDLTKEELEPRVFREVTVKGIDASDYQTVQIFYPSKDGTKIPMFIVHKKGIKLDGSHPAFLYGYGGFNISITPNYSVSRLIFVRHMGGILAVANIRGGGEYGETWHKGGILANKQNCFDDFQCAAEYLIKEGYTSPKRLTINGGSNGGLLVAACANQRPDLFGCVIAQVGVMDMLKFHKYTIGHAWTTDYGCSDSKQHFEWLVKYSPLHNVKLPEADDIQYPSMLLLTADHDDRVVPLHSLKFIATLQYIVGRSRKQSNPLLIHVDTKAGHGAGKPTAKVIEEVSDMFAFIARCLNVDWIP
# [5] = biological target: T2, Prolyl oligopeptidase (PO) (Rattus norvegicus, UniProt O70196); assay: prolyl oligopeptidase metaprobe hydrolysis in rat plasma, brain and lung preparations; assay type: biochemical
# T2 sequence (O70196 1-710): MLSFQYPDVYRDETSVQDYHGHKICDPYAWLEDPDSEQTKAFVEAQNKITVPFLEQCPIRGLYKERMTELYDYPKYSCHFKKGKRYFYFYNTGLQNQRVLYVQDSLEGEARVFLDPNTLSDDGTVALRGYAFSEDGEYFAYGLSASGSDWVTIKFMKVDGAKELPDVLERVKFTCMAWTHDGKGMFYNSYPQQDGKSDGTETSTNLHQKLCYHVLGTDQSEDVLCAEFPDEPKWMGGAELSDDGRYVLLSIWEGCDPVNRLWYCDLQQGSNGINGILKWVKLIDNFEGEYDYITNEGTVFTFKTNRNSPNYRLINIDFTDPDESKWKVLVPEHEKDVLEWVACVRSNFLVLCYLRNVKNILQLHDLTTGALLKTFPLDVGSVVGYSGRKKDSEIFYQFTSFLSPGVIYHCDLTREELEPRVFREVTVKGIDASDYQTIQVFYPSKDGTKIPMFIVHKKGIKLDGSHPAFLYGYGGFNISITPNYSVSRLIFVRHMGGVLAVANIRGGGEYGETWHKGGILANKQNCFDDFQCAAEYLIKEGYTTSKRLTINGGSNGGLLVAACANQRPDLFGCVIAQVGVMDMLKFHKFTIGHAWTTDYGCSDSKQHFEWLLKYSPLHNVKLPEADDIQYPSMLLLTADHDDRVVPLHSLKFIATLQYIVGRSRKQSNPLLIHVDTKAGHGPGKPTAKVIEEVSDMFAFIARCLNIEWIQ
compound,measurement,setting,value
CC(=O)N[C@@H]1[C@@H](O)[C@H](O)[C@@H](CO)O[13CH]1O (some centres unmarked) [N-acetyl-1-^13C-glucosamine],percent recovery of 13C,[1],0.15+/−0.073%
same,13C % Dose,[2]; time point 12 hr,.089 % Dose
same,13C % Dose,[2]; time point 24 hr,.189 % Dose
same,13C % Dose,[2]; time point 36 hr,.213 % Dose
CC(=O)NC(CCC([15NH2])=O)C(=O)O (centres unmarked) [N-acetyl-5-^15N-glutamine],normalized 15N/13C GFAT-MRI1,[3],24
"CCO[13C](=O)[C@H](CC)NC(=O)[C@@H]1CCCN1C(=O)CNC(=O)OCc1ccccc1 [Prolyl oligopeptidase Metaprobe, N-carbobenzyloxy-glycyl-L-prolyl-L-2-aminobutyric [1-^13C] acid ethyl ester]",% Dose metabolized,"[4]; Control, two hour incubation at 37° C.",30 ± 4 % Dose
same,% Dose metabolized,"[4]; Test sample, ARDS",54 ± 13 % Dose
same,% Dose metabolized,"[5]; Rat Brain homogenate (acetone powder), Control",44 ± 8 % Dose
same,% Dose metabolized,"[5]; Rat Lung homogenate (acetone powder), Control",24 ± 12 % Dose
same,% Dose metabolized,"[5]; Rat Plasma, Control",2 ± 4 % Dose
same,% Dose metabolized,"[5]; Rat Plasma, Test sample, Sepsis",8 ± 5 % Dose
